In patent publication US20100179142A1 (priority 2003, published 2010):

Legend:
[1] = system: MMTV-neu tumours; type: in vivo, mice
Experimental: Following pregnancy, which induces activation of the promoter, MMTV-neu mice spontaneously develop multiple tumours within each mammary gland. […] Control animals were dosed with vehicle (1% polysorbate 80). Due to variability in the growth of spontaneous tumours, dosing commenced at different times relative to the assessment of tumour volume, which was determined twice weekly on all animals using calipers. To simplify the analysis, data within each group were collated in 3 day intervals (e.g. tumour volumes from mice receiving either 2, 3 or 4 doses of compound were pooled and the mean volume plotted against “day 3”). Data is plotted for measurements grouped over 3 day periods ie 2-4, 5-7, 8-10 etc. Statistical analysis was performed on measurements between 20 and 22 days of dosing.

[2] = system: A431 vulval carcinoma xenografts; assay: Human A431 vulval carcinoma tumour xenografts in nude mice; details: p.o. daily, AZD2171 3 mg/kg/day, ZD1839 50 mg/kg/day or both; for Number of tumours regressing after 24 days of treatment (treatment from day 28 to day 52): regressing/total
Experimental: 5×10^6 A431 tumour cells in 0.1 ml of serum free Dulbecco's Modified Eagle's Medium (DMEM) were injected subcutaneously (s.c.) into the flank of each athymic (nu/nu genotype) mouse. Eleven days after inoculation tumours were excised and dissected to generate cubic tumour fragments of 0.5-1 mm^3, which were implanted into further nude mice for a therapy experiment. Tumour volumes were assessed by bilateral Vernier caliper measurement and, taking length to be the longest diameter across the tumour and width the corresponding perpendicular, calculated using the formula (length×width)×the square root of (length×width)×(π/6). […] Inhibition of tumour growth from the start of treatment was assessed on day 45 (the point at which control animals were removed from the experiment because of tumour burden) by comparison of the differences in tumor volume between control and treated groups. In addition, the number of tumour regressions following 24 days of treatment was ascertained (tumour regression being evident if the tumour volume at day 52 was smaller than the pre-treatment value on day 28).

Row | Compound | anti-tumour effect in MMTV-neu mice ([1]; mouse, in vivo) | Number of tumours regressing after 24 days of treatment (treatment from day 28 to day 52) [2] | inhibition of growth of established MMTV-neu tumours ([1]; AZD2171 alone 1 or 3 mg/kg/day, orally once-daily, 20-22 days of dosing, P<0.05) | Mean % Inhibition of tumour growth following 17 days of treatment (treatment from day 28 to day 45) ([2]; versus control at day 45)
1 | COc1cc2ncnc(Nc3ccc(F)c(Cl)c3)c2cc1OCCCN1CCOCC1 [ZD1839, N-(3-chloro-4-fluorophenyl)-7-methoxy-6-(3-morpholinopropoxy)quinazolin-4-amine, reference compound] | significant anti-tumour effect | 2/10 | – | –
2 | COc1cc2c(Oc3ccc4[nH]c(C)cc4c3F)ncnc2cc1OCCCN1CCCC1 [AZD2171, 4-(4-fluoro-2-methylindol-5-yloxy)-6-methoxy-7-(3-(pyrrolidin-1-yl)propoxy)quinazoline] | – | 2/10 | inhibited the growth of established (≧0.4 cm^3) MMTV-neu tumours significantly | 95% (P < 0.001)
